According to PubChem BioAssay (NCI):
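Assay format: 96-well plates, 48-hour exposure. GI50 is the concentration that inhibits growth by half. Definition used: TGI = concentration required for complete inhibition of growth.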

Experiments:
Test in all cases: inhibition of tumour cell growth, NCI panel, 48 h
MDA-N = test system: MDA-N
SNB-78 CNS = test system: SNB-78 CNS
KM20L2 colon = test system: KM20L2 colon
HOP-18 NSCLC = test system: HOP-18 NSCLC
DMS 114 small cell lung = test system: DMS 114 small cell lung
M19-MEL melanoma = test system: M19-MEL melanoma
XF 498 CNS = test system: XF 498 CNS
DLD-1 colon = test system: DLD-1 colon
RXF-631 renal = test system: RXF-631 renal

Row | Structure (SMILES) | TGI (MDA-N) [µM] | TGI (SNB-78 CNS) [µM] | TGI (KM20L2 colon) [µM] | TGI (HOP-18 NSCLC) [µM] | TGI (DMS 114 small cell lung) [µM] | TGI (M19-MEL melanoma) [µM] | TGI (XF 498 CNS) [µM] | TGI (DLD-1 colon) [µM] | TGI (RXF-631 renal) [µM] | GI50 (KM20L2 colon) [µM] | GI50 (HOP-18 NSCLC) [µM] | GI50 (M19-MEL melanoma) [µM] | GI50 (DLD-1 colon) [µM]
1 | CCC(c1ccccc1)c1cc(C(C)(C)C)cc(C(C)(C)C)c1O (configuration not stated) | 30.9 |  |  |  |  |  |  |  |  |  |  |  | 
2 | O=C1C=CC(=O)c2c1nc(CBr)[nH]c2=O | > 100 |  |  |  |  |  |  |  |  |  |  |  | 
3 | C=CCSC(C)=O | > 100 |  |  |  |  |  |  |  |  |  |  |  | 
4 | N#CC(/C(CCCC(=O)Nc1cccc([N+](=O)[O-])c1)=N\NC(=O)c1c(O)ccc2ccccc12)c1nc2ccccc2s1 (configuration not stated) |  | > 100 | > 100 | > 100 | 34.5 | 46.6 | > 100 | > 100 |  |  |  |  | 
5 | COc1ccc(C(=O)C(C(=O)C(=O)NCCCNC(=O)C(=O)C(C(=O)c2ccc(OC)cc2)c2ccc(OC)cc2)c2ccc(OC)cc2)cc1 (configuration not stated) |  | > 100 | > 100 | > 100 | > 100 |  | > 100 | > 100 |  |  |  |  | 
6 | CSc1nc(SC)c2c(C)cn(COCCOC(=O)c3ccccc3)c2n1 | > 100 |  |  |  |  |  |  |  |  |  |  |  | 
7 | O=C(N/C(=C\c1ccc(/C=C(\NC(=O)c2ccccc2)c2nc3c(O)nc(S)nc3[nH]2)cc1)c1nc2c(O)nc(S)nc2[nH]1)c1ccccc1 |  | > 100 | > 100 | > 100 | > 100 |  | > 100 | > 100 | > 100 |  |  |  | 
8 | COC1/C(=C\C(C)=O)c2ccccc2N1C(C)=O (configuration not stated) |  |  | > 100 | > 100 |  | > 100 | > 100 | > 100 | > 100 |  |  |  | 
9 | COc1ccc(/C=C/c2ccnc3ccccc23)cc1OC | 27 |  |  |  |  |  |  |  |  |  |  |  | 
10 | COc1ccc(C(O)c2ccccn2)cc1 (configuration not stated) | > 100 |  |  |  |  |  |  |  |  |  |  |  | 
11 | CC1(C)C(=O)/C=C\C(=O)C(C)(C)C(=O)/C=C\C(=O)C(C)(C)C2=CC=C(O2)C(C)(C)C(=O)/C=C\C1=O | 19.1 | 15.7 | 28.3 | 37.1 | 21 | 13.6 | 3.86 | 3.61 | > 52.7 |  |  |  | 
12 | CCN(CC)C(=S)SS(C)(=O)=O |  | 43.7 |  | > 100 |  | 30.6 |  | 33.3 |  |  |  |  | 
13 | O=C(CCc1ccccc1)CC1OC(=O)C(Cl)=C1Cl (configuration not stated) |  | > 100 | 26.5 | 59.6 |  | 33.8 | 41.4 | 32.8 |  |  |  |  | 
14 | N#Cc1ccc(C2SCc3nc4ccccc4n32)cc1 (configuration not stated) |  | > 100 | > 100 | > 100 |  | > 100 | > 100 | > 100 |  |  |  |  | 
15 | Cc1ccc(S(=O)(=O)C2CC2(Cl)Cl)cc1 (configuration not stated) |  |  | > 100 |  | 39.8 | 67.7 | 45.2 | 61.1 | 50.8 |  |  |  | 
16 | Cc1[nH]c2cc([N+](=O)[O-])ccc2c1[N+](=O)[O-] |  |  | > 100 |  | 33.6 |  | 50 | > 100 |  |  |  |  | 
17 | CC(=O)CC(=O)Nc1ccccc1C(F)(F)F |  | > 100 | > 100 |  | > 100 | > 100 | > 100 | > 100 | > 100 |  |  |  | 
18 | Cc1c(-c2ccccn2)ccc2ccccc12 | > 100 |  |  |  |  |  |  |  |  |  |  |  | 
19 | NS(=O)(=O)c1ccc(N=Nc2c[nH]c(=O)c(O)c2)cc1 | > 100 |  |  |  |  |  |  |  |  |  |  |  | 
20 | CSc1nnc(C(C#N)C#N)nn1 |  | > 100 | > 100 |  | > 100 | > 100 | > 100 | > 100 | > 100 |  |  |  | 
21 | CCOC(=O)C1C(=O)CC(=O)C2CCCCC21 (configuration not stated) |  | > 100 |  |  | > 100 |  | > 100 | > 100 | > 100 |  |  |  | 
22 | CC(=O)C1C(=O)C(=O)N(CCN2C(=O)C(=O)C(C(C)=O)C2=O)C1=O (configuration not stated) |  |  | > 100 | > 100 | > 100 | > 100 | > 100 |  | > 100 |  |  |  | 
23 | CC(=O)[CH-]C(=O)c1ccccc1.CC(=O)[CH-]C(=O)c1ccccc1.CC(=O)[CH-]C(=O)c1ccccc1.[Ga+3] |  |  | 42.6 | 61.5 |  | 30.5 |  | 53.6 |  | 18.5 | 18 | 13.4 | 16.6
24 | COC(=O)[C@@]12C3=NO[C@]1(C(=O)OC)C(O[Si](C)(C)C(C)(C)C)[C@@H](OC(C)=O)[C@@H](OC(C)=O)[C@@H]2[C@@H](OCc1ccccc1)CC3 (some centres not stated) |  | > 100 | > 100 | > 100 | > 100 | > 100 | > 100 | > 100 |  |  |  |  | 
25 | CN(C)N=Nc1ccc(S(N)(=O)=O)cc1 |  |  | > 100 | > 100 | > 100 | > 100 | > 100 | > 100 |  |  |  |  | 
26 | COc1cc(O)c(C(=O)/C=C/c2ccc(OC)c(OCc3ccccc3)c2)c(OC)c1 |  | 6.52 | > 100 | > 100 |  | > 100 | > 100 | > 100 |  |  |  |  | 
27 | NC(=O)c1ncn(C2OC(CO)C(O)C2O)c1O (configuration not stated) |  | > 100 | > 100 | > 100 | > 100 | > 100 | > 100 |  | > 100 |  |  |  | 
28 | CC1=C2C=CC(=O)C[C@@]2(C)CCC1 |  | > 100 |  |  | > 100 | > 100 | > 100 | > 100 | > 100 |  |  |  | 
29 | CCN(CC)c1ccc(C2N3CCCCC3[C@@H]3c4[nH]c5ccccc5c4CCN23)cc1 (some centres not stated) |  | 61.3 | > 100 | > 100 | 33.1 | 57.1 | 41 | > 100 |  |  |  |  | 
30 | N=C(CC(=O)Nc1ccccn1)c1ccccc1 | > 100 |  |  |  |  |  |  |  |  |  |  |  | 
